Experimental data from PubChem BioAssay (NCI).
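These data come from cells grown in 96-well plates and exposed to compound for 48 hours at five concentrations. Abbreviation: GI50, concentration required for 50% inhibition of growth. TGI denotes the concentration required for complete inhibition of growth.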

Assays:
Assay in all cases: growth of human tumour cells (NCI), 48 h
SK-MEL-2 melanoma = system: SK-MEL-2 melanoma
UO-31 renal = system: UO-31 renal
LOX IMVI melanoma = system: LOX IMVI melanoma
KM12 colon = system: KM12 colon
NCI-H23 lung = system: NCI-H23 lung
HOP-92 NSCLC = system: HOP-92 NSCLC
SF-539 CNS = system: SF-539 CNS
K-562 leukemia = system: K-562 leukemia
HCT-15 colon = system: HCT-15 colon
U251 CNS = system: U251 CNS
OVCAR-3 ovarian = system: OVCAR-3 ovarian
OVCAR-5 ovarian = system: OVCAR-5 ovarian
UACC-62 melanoma = system: UACC-62 melanoma
UACC-257 melanoma = system: UACC-257 melanoma
MDA-N = system: MDA-N
SF-295 CNS = system: SF-295 CNS
HT29 colon = system: HT29 colon
HCC-2998 colon = system: HCC-2998 colon
PC-3 prostate = system: PC-3 prostate
ACHN renal = system: ACHN renal
RPMI-8226 leukemia = system: RPMI-8226 leukemia
SW-620 colon = system: SW-620 colon
MCF7 breast = system: MCF7 breast
SK-MEL-28 melanoma = system: SK-MEL-28 melanoma
HOP-62 NSCLC = system: HOP-62 NSCLC
SNB-75 CNS = system: SNB-75 CNS
TK-10 renal = system: TK-10 renal
MALME-3M melanoma = system: MALME-3M melanoma
M14 melanoma = system: M14 melanoma
COLO 205 colon = system: COLO 205 colon
DU-145 prostate = system: DU-145 prostate
OVCAR-8 ovarian = system: OVCAR-8 ovarian
NCI/ADR-RES ovarian = system: NCI/ADR-RES ovarian
IGROV1 ovarian = system: IGROV1 ovarian
MOLT-4 leukemia = system: MOLT-4 leukemia
A549 NSCLC = system: A549 NSCLC
SNB-19 CNS = system: SNB-19 CNS
HS 578T breast = system: HS 578T breast
HCT-116 colon = system: HCT-116 colon
EKVX NSCLC = system: EKVX NSCLC
SR leukemia = system: SR leukemia
786-0 renal = system: 786-0 renal
NCI-H522 lung = system: NCI-H522 lung
HL-60(TB) leukemia = system: HL-60(TB) leukemia
SF-268 CNS = system: SF-268 CNS
SN12C renal = system: SN12C renal
BT-549 breast = system: BT-549 breast
NCI-H226 lung = system: NCI-H226 lung
MDA-MB-231 breast = system: MDA-MB-231 breast
CAKI-1 renal = system: CAKI-1 renal
OVCAR-4 ovarian = system: OVCAR-4 ovarian
NCI-H460 lung = system: NCI-H460 lung
A498 renal = system: A498 renal
SK-MEL-5 melanoma = system: SK-MEL-5 melanoma
MDA-MB-435 = system: MDA-MB-435
T-47D breast = system: T-47D breast
RXF 393 renal = system: RXF 393 renal
CCRF-CEM leukemia = system: CCRF-CEM leukemia
SK-OV-3 ovarian = system: SK-OV-3 ovarian

COC[C@H]1C(=O)NCC(=O)N2N=CCC[C@H]2C(=O)N(O)[C@H](C)C(=O)O[C@@H](C(C)C)[C@H](NC(=O)[C@@](C)(O)[C@]2(O)CC[C@@H](CC(C)C)[C@H](C)O2)C(=O)N2NCCC[C@@H]2C(=O)N1O
TGI (SK-MEL-2 melanoma): 0.0276 µM
TGI (UO-31 renal): 0.341 µM
TGI (LOX IMVI melanoma): 0.0316 µM
TGI (KM12 colon): 0.0276 µM
TGI (NCI-H23 lung): 0.0312 µM
TGI (HOP-92 NSCLC): 0.0334 µM
TGI (SF-539 CNS): 0.0297 µM
TGI (K-562 leukemia): > 100 µM
TGI (HCT-15 colon): 0.253 µM
TGI (U251 CNS): 0.03 µM
TGI (OVCAR-3 ovarian): 0.0362 µM
TGI (OVCAR-5 ovarian): 0.0341 µM
TGI (UACC-62 melanoma): 0.0322 µM
TGI (UACC-257 melanoma): 0.0328 µM
TGI (MDA-N): 0.0323 µM
TGI (SF-295 CNS): 0.0311 µM
TGI (HT29 colon): 0.0307 µM
TGI (HCC-2998 colon): 0.0279 µM
TGI (PC-3 prostate): 0.0318 µM
TGI (ACHN renal): 0.147 µM
TGI (RPMI-8226 leukemia): > 100 µM
TGI (SW-620 colon): 0.03 µM
TGI (MCF7 breast): 0.0297 µM
TGI (SK-MEL-28 melanoma): 0.0315 µM
TGI (HOP-62 NSCLC): 0.0322 µM
TGI (SNB-75 CNS): < 0.0159 µM
TGI (TK-10 renal): 0.0322 µM
TGI (MALME-3M melanoma): 0.0307 µM
TGI (M14 melanoma): 0.0355 µM
TGI (COLO 205 colon): 0.0319 µM
TGI (DU-145 prostate): 0.168 µM

Cc1nc(Sc2nc3ccc([N+](=O)[O-])cc3s2)sc1C
GI50 (OVCAR-8 ovarian): 1.79 µM
TGI (OVCAR-8 ovarian): 7.12 µM
GI50 (NCI/ADR-RES ovarian): 1.63 µM
TGI (NCI/ADR-RES ovarian): 5.45 µM
GI50 (SK-MEL-2 melanoma): 1.6 µM
TGI (SK-MEL-2 melanoma): 4.53 µM
GI50 (IGROV1 ovarian): 3 µM
TGI (IGROV1 ovarian): 14.8 µM
GI50 (UO-31 renal): 1.49 µM
TGI (UO-31 renal): 4.17 µM
GI50 (LOX IMVI melanoma): 0.221 µM
TGI (LOX IMVI melanoma): 0.932 µM
GI50 (KM12 colon): 3.89 µM
TGI (KM12 colon): 14.6 µM
GI50 (MOLT-4 leukemia): 0.288 µM
TGI (MOLT-4 leukemia): 3.45 µM
GI50 (A549 NSCLC): 10.4 µM
TGI (A549 NSCLC): 22.7 µM
GI50 (NCI-H23 lung): 1.03 µM
TGI (NCI-H23 lung): 4.44 µM
GI50 (HOP-92 NSCLC): 2.54 µM
TGI (HOP-92 NSCLC): 7.55 µM
GI50 (K-562 leukemia): 0.429 µM
TGI (K-562 leukemia): 8.97 µM
GI50 (SNB-19 CNS): 8.41 µM
TGI (SNB-19 CNS): 21.9 µM
GI50 (HCT-15 colon): 0.731 µM
TGI (HCT-15 colon): 3.51 µM
GI50 (HS 578T breast): 3.03 µM
TGI (HS 578T breast): 16.4 µM
GI50 (U251 CNS): 1.99 µM
TGI (U251 CNS): 7.9 µM
GI50 (HCT-116 colon): 1.06 µM
TGI (HCT-116 colon): 2.49 µM
GI50 (OVCAR-3 ovarian): 1.35 µM
TGI (OVCAR-3 ovarian): 3.28 µM
GI50 (EKVX NSCLC): 11.6 µM
TGI (EKVX NSCLC): 24.2 µM
GI50 (OVCAR-5 ovarian): 2.84 µM
TGI (OVCAR-5 ovarian): 11.8 µM
GI50 (SR leukemia): 0.367 µM
TGI (SR leukemia): 5.94 µM
GI50 (786-0 renal): 1.78 µM
TGI (786-0 renal): 6.1 µM
GI50 (UACC-62 melanoma): 1.22 µM
TGI (UACC-62 melanoma): 3.49 µM
GI50 (NCI-H522 lung): 0.627 µM
TGI (NCI-H522 lung): 2.36 µM
GI50 (UACC-257 melanoma): 4.62 µM
TGI (UACC-257 melanoma): 16.4 µM
GI50 (HL-60(TB) leukemia): 1.68 µM
TGI (HL-60(TB) leukemia): 4.6 µM
GI50 (SF-295 CNS): 13.8 µM
TGI (SF-295 CNS): 26.7 µM
GI50 (SF-268 CNS): 1.7 µM
TGI (SF-268 CNS): 10.9 µM
GI50 (SN12C renal): 1.74 µM
TGI (SN12C renal): 6.04 µM
GI50 (BT-549 breast): 0.989 µM
TGI (BT-549 breast): 2.85 µM
GI50 (NCI-H226 lung): 1.07 µM
TGI (NCI-H226 lung): 2.84 µM
GI50 (HT29 colon): 1.64 µM
TGI (HT29 colon): 4.23 µM
GI50 (MDA-MB-231 breast): 1.84 µM
TGI (MDA-MB-231 breast): 11 µM
GI50 (HCC-2998 colon): 12.5 µM
TGI (HCC-2998 colon): 25.2 µM
GI50 (CAKI-1 renal): 1.9 µM
TGI (CAKI-1 renal): 8.03 µM
GI50 (PC-3 prostate): 1.15 µM
TGI (PC-3 prostate): 7.63 µM
GI50 (ACHN renal): 1.61 µM
TGI (ACHN renal): 3.81 µM
GI50 (OVCAR-4 ovarian): 1.35 µM
TGI (OVCAR-4 ovarian): 9.81 µM
GI50 (RPMI-8226 leukemia): 1.8 µM
TGI (RPMI-8226 leukemia): 6.52 µM
GI50 (SW-620 colon): 0.482 µM
TGI (SW-620 colon): 3.53 µM
GI50 (NCI-H460 lung): 0.894 µM
TGI (NCI-H460 lung): 6.26 µM
GI50 (MCF7 breast): 0.705 µM
TGI (MCF7 breast): 10.1 µM
GI50 (SK-MEL-28 melanoma): 1.77 µM
TGI (SK-MEL-28 melanoma): 4.76 µM
GI50 (A498 renal): 1.59 µM
TGI (A498 renal): 9.23 µM
GI50 (HOP-62 NSCLC): 3.81 µM
TGI (HOP-62 NSCLC): 14.2 µM
GI50 (SK-MEL-5 melanoma): 1.67 µM
TGI (SK-MEL-5 melanoma): 4.58 µM
GI50 (SNB-75 CNS): 2.48 µM
TGI (SNB-75 CNS): 12.3 µM
GI50 (MDA-MB-435): 1.78 µM
TGI (MDA-MB-435): 11.1 µM
GI50 (T-47D breast): 1.32 µM
TGI (T-47D breast): 6.17 µM
GI50 (RXF 393 renal): 1.22 µM
TGI (RXF 393 renal): 3.39 µM
GI50 (TK-10 renal): 2.05 µM
TGI (TK-10 renal): 7.87 µM
GI50 (MALME-3M melanoma): 1.4 µM
TGI (MALME-3M melanoma): 3.9 µM
GI50 (M14 melanoma): 1.82 µM
TGI (M14 melanoma): 4.14 µM
GI50 (COLO 205 colon): 1.93 µM
TGI (COLO 205 colon): 6.07 µM
GI50 (CCRF-CEM leukemia): 0.477 µM
TGI (CCRF-CEM leukemia): 6.18 µM
GI50 (DU-145 prostate): 3.99 µM
TGI (DU-145 prostate): 15.4 µM
GI50 (SK-OV-3 ovarian): 4.38 µM
TGI (SK-OV-3 ovarian): 15.5 µM

C#CC(O)/C=C/C(O)CCCC(O)CC#CC(O)C#CCCCCC(O)/C=C/CCCC(O)/C=C/CCCCCCCCCCCCCC(O)C(O)C#CC(=O)O (stereo not given)
TGI (OVCAR-8 ovarian): > 25 µM
TGI (NCI/ADR-RES ovarian): > 25 µM
TGI (SK-MEL-2 melanoma): > 25 µM
TGI (IGROV1 ovarian): > 25 µM
TGI (UO-31 renal): > 25 µM
TGI (LOX IMVI melanoma): > 25 µM
TGI (KM12 colon): > 25 µM
TGI (MOLT-4 leukemia): > 25 µM
TGI (A549 NSCLC): > 25 µM
TGI (NCI-H23 lung): > 25 µM
TGI (HOP-92 NSCLC): > 25 µM
TGI (K-562 leukemia): > 25 µM
TGI (SNB-19 CNS): > 25 µM
TGI (HCT-15 colon): > 25 µM
TGI (HS 578T breast): > 25 µM
TGI (U251 CNS): > 25 µM
TGI (HCT-116 colon): > 25 µM
TGI (EKVX NSCLC): > 25 µM
TGI (OVCAR-5 ovarian): > 25 µM
TGI (SR leukemia): > 25 µM
TGI (786-0 renal): > 25 µM
TGI (UACC-62 melanoma): > 25 µM
TGI (NCI-H522 lung): > 25 µM
TGI (UACC-257 melanoma): > 25 µM
TGI (MDA-N): > 25 µM
TGI (HL-60(TB) leukemia): > 25 µM
TGI (SF-295 CNS): > 25 µM
TGI (SF-268 CNS): > 25 µM
TGI (SN12C renal): > 25 µM
TGI (NCI-H226 lung): > 25 µM
TGI (HT29 colon): > 25 µM
TGI (MDA-MB-231 breast): > 25 µM
TGI (HCC-2998 colon): > 25 µM
TGI (CAKI-1 renal): > 25 µM
TGI (PC-3 prostate): > 25 µM
TGI (ACHN renal): > 25 µM
TGI (OVCAR-4 ovarian): > 25 µM
TGI (RPMI-8226 leukemia): > 25 µM
TGI (NCI-H460 lung): > 25 µM
TGI (MCF7 breast): > 25 µM
TGI (SK-MEL-28 melanoma): > 25 µM
TGI (A498 renal): > 25 µM
TGI (HOP-62 NSCLC): > 25 µM
TGI (SK-MEL-5 melanoma): > 25 µM
TGI (SNB-75 CNS): > 25 µM
TGI (MDA-MB-435): > 25 µM
TGI (T-47D breast): > 25 µM
TGI (RXF 393 renal): > 25 µM
TGI (TK-10 renal): > 25 µM
TGI (MALME-3M melanoma): > 25 µM
TGI (M14 melanoma): > 25 µM
TGI (COLO 205 colon): > 25 µM
TGI (CCRF-CEM leukemia): > 25 µM
TGI (DU-145 prostate): > 25 µM
TGI (SK-OV-3 ovarian): > 25 µM
